Test results taken from ChEMBL document CHEMBL6127085, “Design, synthesis and evaluation of novel LpxC inhibitors containing a hydrazone moiety as Gram-negative antibacterial agents” (Eur J Med Chem, 2024).
In brackets after ≈: the same amount, converted by molar mass.

Key:
[1] = Intrinsic clearance in rat; assay type: ADME; conditions: read-out: CLH
[2] = Plasma protein binding in rat assessed as unbound fraction at 1 uM incubated for 6 hrs by LC-MS/MS analysis; assay type: ADME, cell-free
[3] = MRT (0 to t) in male Sprague-Dawley rat at 1 mg/kg, iv measured upto 24 hrs by LC-MS analysis; assay type: ADME, organism-based; conditions: in vivo
[4] = Plasma protein binding in human at 1 uM incubated for 6 hrs by LC-MS/MS analysis; assay type: ADME, cell-free; conditions: read-out: PPB
[5] = Metabolic stability in mouse liver microsomes assessed as half life at 1 uM preincubated for 5 mins followed by NADPH addition and measured after 5 to 60 mins by LC-MS analysis; assay type: ADME, Microsome; conditions: microsomes, 1 µM, time 10-65 min
[6] = AUC (0 to t) in male Sprague-Dawley rat at 10 mg/kg, IG measured upto 24 hrs by LC-MS analysis; assay type: ADME, organism-based; conditions: in vivo, po
[7] = Volume of distribution at steady state in male Sprague-Dawley rat at 1 mg/kg, iv measured upto 24 hrs by LC-MS analysis; assay type: ADME, organism-based; conditions: in vivo, read-out: Vdss
Cytochrome P450 1A2 = molecular target: T1, Cytochrome P450 1A2 (Homo sapiens, UniProt P05177); test: Inhibition of CYP1A2 in human liver microsomes using alpha-naphthoflavone […] preincubated for 5 mins followed by substrate addition ande measured after 120 mins in presence of NADPH by LC-MS/MS analysis; assay type: ADME, Microsome
T1 sequence (P05177 whole entry): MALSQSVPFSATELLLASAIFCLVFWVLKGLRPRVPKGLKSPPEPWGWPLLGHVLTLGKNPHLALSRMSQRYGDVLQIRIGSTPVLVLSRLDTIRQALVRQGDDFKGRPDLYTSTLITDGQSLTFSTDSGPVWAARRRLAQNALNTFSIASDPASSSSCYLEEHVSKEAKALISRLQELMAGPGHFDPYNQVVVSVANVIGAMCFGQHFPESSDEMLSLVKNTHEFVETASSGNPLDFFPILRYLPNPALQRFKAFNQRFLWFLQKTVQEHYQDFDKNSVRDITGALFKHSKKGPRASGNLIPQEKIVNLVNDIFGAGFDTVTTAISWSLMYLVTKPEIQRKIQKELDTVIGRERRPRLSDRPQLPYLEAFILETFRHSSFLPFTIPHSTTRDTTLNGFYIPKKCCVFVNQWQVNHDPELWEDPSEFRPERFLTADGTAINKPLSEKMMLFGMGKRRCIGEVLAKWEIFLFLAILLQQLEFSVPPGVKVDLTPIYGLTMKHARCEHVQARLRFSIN

[8] = AUC (0 to t) in male Sprague-Dawley rat at 1 mg/kg, iv measured upto 24 hrs by LC-MS analysis; assay type: ADME, organism-based; conditions: in vivo
[9] = Clearance in male Sprague-Dawley rat at 1 mg/kg, iv measured upto 24 hrs by LC-MS analysis; assay type: ADME, organism-based; conditions: in vivo
[10] = Metabolic stability in rat liver microsomes assessed as half life at 1 uM preincubated for 5 mins followed by NADPH addition and measured after 5 to 60 mins by LC-MS analysis; assay type: ADME, Microsome; conditions: microsomes, 1 µM, time 10-65 min
Klebsiella pneumoniae [11] = test: Antibacterial activity against Klebsiella pneumoniae ATCC700603 assessed as reduction in bacterial growth measured after 18 to 24 hrs by CLSI protocol based method; assay type: functional; conditions: time 18-24 hrs
[12] = Cmax in male Sprague-Dawley rat at 10 mg/kg, IG measured upto 24 hrs by LC-MS analysis; assay type: ADME, organism-based; conditions: in vivo, po
[13] = Intrinsic clearance in human; assay type: ADME; conditions: read-out: CLH
[14] = Metabolic stability in rat liver microsomes assessed as intrinsic clearance at 1 uM preincubated for 5 mins followed by NADPH addition and measured after 5 to 60 mins by LC-MS analysis; assay type: ADME, Microsome; conditions: microsomes, 1 µM, time 10-65 min
Cytochrome P450 2C9 = Cytochrome P450 2C9 (Homo sapiens, UniProt P11712); test: Inhibition of CYP2C9 in human liver microsomes using sulfaphenazolum […] preincubated for 5 mins followed by substrate addition ande measured after 120 mins in presence of NADPH by LC-MS/MS analysis; assay type: ADME, Microsome
Sequence of Cytochrome P450 2C9 (P11712 whole entry): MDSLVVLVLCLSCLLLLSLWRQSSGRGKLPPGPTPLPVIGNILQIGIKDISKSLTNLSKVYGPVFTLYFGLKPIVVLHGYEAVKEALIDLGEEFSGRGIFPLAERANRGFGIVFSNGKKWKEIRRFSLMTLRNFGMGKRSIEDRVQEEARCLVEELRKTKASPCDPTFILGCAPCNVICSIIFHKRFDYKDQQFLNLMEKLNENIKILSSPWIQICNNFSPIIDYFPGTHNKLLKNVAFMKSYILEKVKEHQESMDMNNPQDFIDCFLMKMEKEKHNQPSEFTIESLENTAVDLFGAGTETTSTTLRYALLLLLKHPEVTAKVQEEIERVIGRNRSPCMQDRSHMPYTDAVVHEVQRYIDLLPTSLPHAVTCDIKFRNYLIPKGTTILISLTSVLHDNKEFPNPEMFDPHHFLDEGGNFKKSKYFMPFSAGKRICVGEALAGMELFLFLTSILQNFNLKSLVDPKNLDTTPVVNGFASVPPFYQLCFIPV

[15] = Plasma protein binding in human assessed as drug recovery at 1 uM incubated for 6 hrs by LC-MS/MS analysis; assay type: ADME, cell-free; conditions: read-out: Drug recovery
[16] = Plasma protein binding in mouse at 1 uM incubated for 6 hrs by LC-MS/MS analysis; assay type: ADME, cell-free; conditions: read-out: PPB (converted)
[17] = Intrinsic clearance in mouse; assay type: ADME, organism-based; conditions: read-out: CLH
[18] = Half life in male Sprague-Dawley rat at 1 mg/kg, iv measured upto 24 hrs by LC-MS analysis; assay type: ADME, organism-based; conditions: in vivo
[19] = Metabolic stability in mouse liver microsomes assessed as intrinsic clearance at 1 uM preincubated for 5 mins followed by NADPH addition and measured after 5 to 60 mins by LC-MS analysis; assay type: ADME, Microsome; conditions: microsomes, 1 µM, time 10-65 min
Pseudomonas aeruginosa [20] = test: Antibacterial activity against Pseudomonas aeruginosa ATCC27853 assessed as reduction in bacterial growth measured after 18 to 24 hrs by CLSI protocol based method; assay type: functional; conditions: time 18-24 hrs
[21] = Plasma protein binding in human assessed as unbound fraction at 1 uM incubated for 6 hrs by LC-MS/MS analysis; assay type: ADME, cell-free
Cytochrome P450 2C19 = Cytochrome P450 2C19 (Homo sapiens, UniProt P33261); test: Inhibition of CYP2C19 in human liver microsomes using nootkatone […] preincubated for 5 mins followed by substrate addition ande measured after 120 mins in presence of NADPH by LC-MS/MS analysis; assay type: ADME, Microsome
Sequence of Cytochrome P450 2C19 (P33261 whole entry): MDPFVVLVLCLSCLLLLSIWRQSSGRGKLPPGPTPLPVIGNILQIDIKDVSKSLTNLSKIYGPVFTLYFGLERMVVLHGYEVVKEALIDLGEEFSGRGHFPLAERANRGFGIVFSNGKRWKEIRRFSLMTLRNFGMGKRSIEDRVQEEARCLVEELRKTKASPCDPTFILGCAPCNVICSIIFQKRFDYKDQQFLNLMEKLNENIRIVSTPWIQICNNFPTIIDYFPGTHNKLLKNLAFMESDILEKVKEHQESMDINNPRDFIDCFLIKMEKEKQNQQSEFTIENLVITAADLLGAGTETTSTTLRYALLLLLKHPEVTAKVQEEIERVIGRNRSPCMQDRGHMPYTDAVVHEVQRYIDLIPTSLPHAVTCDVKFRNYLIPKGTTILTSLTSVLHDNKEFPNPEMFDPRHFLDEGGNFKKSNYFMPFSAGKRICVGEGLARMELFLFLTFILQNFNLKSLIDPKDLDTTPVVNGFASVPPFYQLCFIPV

[22] = Plasma protein binding in rat at 1 uM incubated for 6 hrs by LC-MS/MS analysis; assay type: ADME, cell-free; conditions: read-out: PPB (converted)
[23] = Solubility of the compound at pH 4.0 by LC-MS/MS analysis; assay type: physicochemical; conditions: buffer
[24] = Stability in rat plasma at 1 uM incubated for 6 hrs by LC-MS/MS analysis; assay type: ADME, cell-free; conditions: read-out: Stability
Cytochrome P450 2D6 = Cytochrome P450 2D6 (Homo sapiens, UniProt P10635); test: Inhibition of CYP2D6 in human liver microsomes using quinidine […] preincubated for 5 mins followed by substrate addition ande measured after 120 mins in presence of NADPH by LC-MS/MS analysis; assay type: ADME, Microsome
Sequence of Cytochrome P450 2D6 (P10635 whole entry): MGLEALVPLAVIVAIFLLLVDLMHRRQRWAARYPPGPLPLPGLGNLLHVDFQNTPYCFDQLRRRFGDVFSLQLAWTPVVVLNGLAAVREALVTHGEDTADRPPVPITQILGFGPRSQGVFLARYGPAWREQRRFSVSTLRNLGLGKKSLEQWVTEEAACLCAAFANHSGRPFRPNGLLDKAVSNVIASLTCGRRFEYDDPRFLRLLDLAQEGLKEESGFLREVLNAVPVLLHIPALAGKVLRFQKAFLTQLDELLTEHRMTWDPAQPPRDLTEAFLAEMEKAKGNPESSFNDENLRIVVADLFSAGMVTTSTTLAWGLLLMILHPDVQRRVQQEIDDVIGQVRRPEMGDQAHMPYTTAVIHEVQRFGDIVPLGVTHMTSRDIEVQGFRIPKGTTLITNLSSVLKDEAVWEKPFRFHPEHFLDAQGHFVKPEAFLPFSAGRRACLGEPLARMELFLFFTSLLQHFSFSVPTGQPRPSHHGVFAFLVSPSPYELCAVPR

[25] = Solubility of the compound at pH 9.0 by LC-MS/MS analysis; assay type: physicochemical; conditions: buffer
Escherichia coli = test: Antibacterial activity against Escherichia coli ATCC25922 assessed as reduction in bacterial growth measured after 18 to 24 hrs by CLSI protocol based method; assay type: functional; conditions: time 18-24 hrs
[26] = Stability in mouse plasma at 1 uM incubated for 6 hrs by LC-MS/MS analysis; assay type: ADME, cell-free; conditions: read-out: Stability
[27] = Half life in male Sprague-Dawley rat at 10 mg/kg, IG measured upto 24 hrs by LC-MS analysis; assay type: ADME, organism-based; conditions: in vivo, po
[28] = Solubility of the compound at pH 6.8 by LC-MS/MS analysis; assay type: physicochemical; conditions: buffer
[29] = MRT (0 to t) in male Sprague-Dawley rat at 10 mg/kg, IG measured upto 24 hrs by LC-MS analysis; assay type: ADME, organism-based; conditions: in vivo, po
[30] = Oral bioavailability in male Sprague-Dawley rat at 10 mg/kg, IG measured upto 24 hrs by LC-MS analysis; assay type: ADME, organism-based; conditions: in vivo
HepG2 = test: Cytotoxicity against human HepG2 cells assessed as inhibition of cell growth measured after 48 hrs by MTT assay; assay type: functional, cell-based; conditions: HepG2, 48 h
[31] = Metabolic stability in human liver microsomes assessed as half life at 1 uM preincubated for 5 mins followed by NADPH addition and measured after 5 to 60 mins by LC-MS analysis; assay type: ADME, Microsome; conditions: microsomes, 1 µM, time 10-65 min
[32] = Plasma protein binding in rat assessed as drug recovery at 1 uM incubated for 6 hrs by LC-MS/MS analysis; assay type: ADME, cell-free; conditions: read-out: Drug recovery
[33] = Plasma protein binding in mouse assessed as unbound fraction at 1 uM incubated for 6 hrs by LC-MS/MS analysis; assay type: ADME, cell-free
Cytochrome P450 3A4 = Cytochrome P450 3A4 (Homo sapiens, UniProt P08684); test: Inhibition of CYP3A4 in human liver microsomes using ketoconazole […] preincubated for 5 mins followed by substrate addition ande measured after 120 mins in presence of NADPH by LC-MS/MS analysis; assay type: ADME, Microsome
Sequence of Cytochrome P450 3A4 (P08684 whole entry): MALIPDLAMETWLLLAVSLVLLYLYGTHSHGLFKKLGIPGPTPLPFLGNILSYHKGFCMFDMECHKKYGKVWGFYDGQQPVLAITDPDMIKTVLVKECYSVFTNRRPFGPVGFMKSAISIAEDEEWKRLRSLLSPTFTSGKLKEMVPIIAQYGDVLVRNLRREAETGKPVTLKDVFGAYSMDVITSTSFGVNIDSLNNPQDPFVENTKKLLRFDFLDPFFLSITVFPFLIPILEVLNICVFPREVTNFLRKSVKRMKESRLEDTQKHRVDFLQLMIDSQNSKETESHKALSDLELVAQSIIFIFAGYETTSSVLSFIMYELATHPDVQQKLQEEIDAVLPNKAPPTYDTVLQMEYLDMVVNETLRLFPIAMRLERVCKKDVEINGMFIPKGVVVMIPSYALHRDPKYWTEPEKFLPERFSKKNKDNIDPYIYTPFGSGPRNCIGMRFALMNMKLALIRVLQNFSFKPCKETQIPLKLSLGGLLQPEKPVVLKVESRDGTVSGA

Klebsiella pneumoniae [34] = test: Antibacterial activity against Klebsiella pneumoniae clinical isolate KPN+22-1 assessed as reduction in bacterial growth measured after 18 to 24 hrs by CLSI protocol based method; assay type: functional; conditions: time 18-24 hrs
[35] = Stability in human plasma at 1 uM incubated for 6 hrs by LC-MS/MS analysis; assay type: ADME, cell-free; conditions: read-out: Stability
Pseudomonas aeruginosa [36] = test: Antibacterial activity against Pseudomonas aeruginosa clinical isolate PAE22-1 assessed as reduction in bacterial growth measured after 18 to 24 hrs by CLSI protocol based method; assay type: functional; conditions: time 18-24 hrs
[37] = Tmax in male Sprague-Dawley rat at 10 mg/kg, IG measured upto 24 hrs by LC-MS analysis; assay type: ADME, organism-based; conditions: in vivo, po
[38] = Plasma protein binding in mouse assessed as drug recovery at 1 uM incubated for 6 hrs by LC-MS/MS analysis; assay type: ADME, cell-free; conditions: read-out: Drug recovery

C[C@@H](O)[C@H](NC(=O)c1ccc(C#Cc2ccc(/C=N/N3CCCC3)cc2)cc1)C(=O)NO
CLint scaled [1]: 8.59 mL/min/kg
fraction unbound at 6 h, 1 µM [2]: 0.0016
MRT last at 24 h [3]: 1.31 h
fraction unbound at 6 h, 1 µM [4]: 0.001
t1/2 [5]: 3.91 min
AUC(0-t) at 24 h [6]: 1050 ng·h/mL
Vd [7]: 1.8 L/kg
IC50 (Cytochrome P450 1A2): > 30 µM
AUC(0-t) at 24 h [8]: 791 ng·h/mL
clearance [9]: 20.6 mL/min/kg
t1/2 [10]: 4.14 min
MIC (Klebsiella pneumoniae [11]): 8 µg/mL (≈ 18.4 µM)
Cmax [12]: 218 ng/mL
CLint scaled [13]: 165 mL/min/kg
CLH [14]: 9.76 µL/min/mg
IC50 (Cytochrome P450 2C9): > 30 µM
recovery at 6 h, 1 µM [15]: 103%
fraction unbound at 6 h, 1 µM [16]: 0.002
CLint scaled [17]: 33.8 mL/min/kg
half-life [18]: 1.09 h
CLH [19]: 17.6 µL/min/mg
MIC (Pseudomonas aeruginosa [20]): > 64 µg/mL
fraction unbound at 6 h, 1 µM [21]: 0.0013
IC50 (Cytochrome P450 2C19): > 30 µM
fraction unbound at 6 h, 1 µM [22]: 0.002
solubility [23]: 4.8 µM (≈ 2.09 µg/mL)
remaining at 6 h, 1 µM [24]: 109%
IC50 (Cytochrome P450 2D6): > 30 µM
solubility [25]: 101 µM (≈ 43.9 µg/mL)
MIC (Escherichia coli): 0.06 µg/mL (≈ 0.138 µM)
remaining at 6 h, 1 µM [26]: 111%
half-life [27]: 2.5 h
solubility [28]: 9.41 µM (≈ 4.09 µg/mL)
MRT last at 24 h [29]: 3.41 h
bioavailability [30]: 13.3%
IC50 (HepG2): > 30 µM
t1/2 [31]: 5.62 h
recovery at 6 h, 1 µM [32]: 102%
fraction unbound at 6 h, 1 µM [33]: 0.00232
IC50 (Cytochrome P450 3A4): > 30 µM
MIC (Klebsiella pneumoniae [34]): 0.25 µg/mL (≈ 0.575 µM)
remaining at 6 h, 1 µM [35]: 113%
MIC (Pseudomonas aeruginosa [36]): 2 µg/mL (≈ 4.6 µM)
Tmax [37]: 4 h
recovery at 6 h, 1 µM [38]: 110%
